Read-outs that look alike come from different tables or passages of the source.
System: C. parvum strain UGA1
Assay: C. parvum growth inhibition assay (Nluc luminescence in HCT-8 cells)
Assay type: cell-based, Cryptosporidium parvum
Settings: Cryptosporidium parvum; for EC50: HCT-8, 48 h, C. parvum growth inhibition in HCT-8 cells, 48 hours, 6 concentrations 10-0.04 μM; for inhibition at 1 µM / inhibition at 10 µM: HCT-8; for inhibition at 1 µM: read-out: % inh @ 1 uM C. parvum; for inhibition at 10 µM: read-out: % inh @ 10 uM C. parvum
Method: C. parvum GROWTH INHIBITION ASSAYS
C. parvum growth inhibition was performed as described in Hulverson M A, Vinayak S, Choi R, Schaefer D A, Castellanos-Gonzalez A, Vidadala R S R, Brooks C F, Herbert G T, Betzer D P, Whitman G R, Sparks H N, Arnold S L M, Rivas K L, Barrett L K, White A C Jr, Maly D J, Riggs M W, Striepen B, Van Voorhis W C, Ojo K K. Bumped-Kinase Inhibitors for Cryptosporidiosis Therapy. J Infect Dis. 2017 Apr. 15; 215(8):1275-1284.
C. parvum strain UGA1 […] (ATCC, Manassas, VA) were prepared as described below. HCT-8 cells were inoculated onto 96-well plates were grown for 48 hours to 90%-100% confluence. C. parvum oocysts were then incubated for 10 minutes in 10% bleach at room temperature and washed with Dulbecco's phosphate-buffered saline. One thousand oocysts per well were applied to plates with Roswell Park Memorial Institute 1640 (RPMI) medium supplemented with 10% horse serum and 1% penicillin/streptomycin. Compounds of Formula (I), Formula (II), and Formula (III) were added to the plates at different concentrations and the plates were incubated for 48 hours. Following the incubation, the monolayers were lysed for 1 hour before a luciferase reagent was added, and relative luminescence units were determined.
For certain compounds of Formula I, Formula II, and Formula III, EC50 values were calculated using curves calculated from Prism after analysis of C. parvum growth inhibition at 6 different concentrations: 10, 3.33, 1.11, 0.37, 0.12, and 0.04 μM. […] For certain compounds of Formula I, Formula II, and Formula III, single point inhibition values of 0-33% (activity level D), between 33% and 66% (activity level E), and between 67% and 100% (activity level F) are also shown in Table 1 below.

[1] = single point inhibition @ 10 uM
[2] = single point inhibition at 1 uM
[3] = single point inhibition at 10 uM

Row | SMILES | EC50 [µM] | inhibition at 1 µM (single point inhibition @ 1 uM) [%] | inhibition at 10 µM [1] [%] | inhibition at 1 µM [2] [%] | inhibition at 10 µM [3] [%]
1 | Cc1cc(-c2cc3cnc(NC(=O)C4CCC4)cc3[nH]2)ncn1 [Example 98, N-(2-(6-methylpyrimidin-4-yl)-1H-pyrrolo[3,2-c]pyridin-6-yl)cyclobutanecarboxamide] | > 1 |  |  |  | 
2 | COC(=O)Nc1cc2[nH]c(-c3ccnc(C)c3)cc2cn1 [Example 174, methyl 2-(2-methylpyridin-4-yl)-1H-pyrrolo[3,2-c]pyridin-6-ylcarbamate] |  | 0 to 33 | 67 to 100 |  | 
3 | COc1nccc(-c2cc3cnc(NC(=O)c4cn(C)nc4C)cc3[nH]2)n1 [Example 250, N-(2-(2-methoxypyrimidin-4-yl)-1H-pyrrolo[3,2-c]pyridin-6-yl)-1,3-dimethyl-1H-pyrazole-4-carboxamide] |  |  |  | 0 to 33 | 0 to 33
4 | CCn1cc(C(=O)Nc2cc3[nH]c(-c4ccnc(OCC(F)(F)F)n4)cc3cn2)c(C)n1 [Example 242, 1-ethyl-3-methyl-N-(2-(2-(2,2,2-trifluoroethoxy)pyrimidin-4-yl)-1H-pyrrolo[3,2-c]pyridin-6-yl)-1H-pyrazole-4-carboxamide] |  |  |  | 0 to 33 | 0 to 33
5 | CC(C)COc1nccc(-c2cc3cnc(NC(=O)c4cnn(C)c4)cc3[nH]2)n1 [Example 311, N-(2-(2-isobutoxypyrimidin-4-yl)-1H-pyrrolo[3,2-c]pyridin-6-yl)-1-methyl-1H-pyrazole-4-carboxamide] |  |  |  | 0 to 33 | 0 to 33
6 | CCc1cc(-c2cc3cnc(NC4CCOCC4)cc3n2C)ncn1 [Example 389, 2-(6-ethylpyrimidin-4-yl)-1-methyl-N-(tetrahydro-2H-pyran-4-yl)-1H-pyrrolo[3,2-c]pyridin-6-amine] | > 1 |  |  |  | 
7 | Cn1cc(C(=O)Nc2cc3[nH]c(-c4ccc(F)cn4)cc3cn2)cn1 [Example 334, N-(2-(5-fluoropyridin-2-yl)-1H-pyrrolo[3,2-c]pyridin-6-yl)-1-methyl-1H-pyrazole-4-carboxamide] |  |  |  | 0 to 33 | 0 to 33
8 | CC(C)n1cc(C(=O)Nc2cc3[nH]c(-c4ccnc(N(C)CC(F)(F)F)n4)cc3cn2)cn1 [Example 232, 1-isopropyl-N-(2-(2-(methyl(2,2,2-trifluoroethyl)amino)pyrimidin-4-yl)-1H-pyrrolo[3,2-c]pyridin-6-yl)-1H-pyrazole-4-carboxamide] |  |  |  | 0 to 33 | 33 to 66
9 | Cn1cc(C(=O)Nc2cc3[nH]c(-c4cc(C(F)(F)F)ncn4)cc3cn2)cn1 [Example 254, 1-methyl-N-(2-(6-(trifluoromethyl)pyrimidin-4-yl)-1H-pyrrolo[3,2-c]pyridin-6-yl)-1H-pyrazole-4-carboxamide] |  |  |  | 0 to 33 | 0 to 33
10 | Cn1cc(C(=O)Nc2cc3[nH]c(C4CC4)cc3cn2)cn1 [Example 88, N-(2-cyclopropyl-1H-pyrrolo[3,2-c]pyridin-6-yl)-1-methyl-1H-pyrazole-4-carboxamide] | > 1 | 33 to 66 | 0 to 33 |  | 
11 | Cc1cc(-c2cc3cnc(NC(=O)NC4CC4)cc3[nH]2)ccn1 [Example 209, 1-cyclopropyl-3-(2-(2-methylpyridin-4-yl)-1H-pyrrolo[3,2-c]pyridin-6-yl)urea] |  |  |  | 0 to 33 | 67 to 100
12 | Cn1cc(C(=O)Nc2cc3[nH]c(C4CCOCC4)cc3cn2)cn1 [Example 259, 1-methyl-N-(2-(tetrahydro-2H-pyran-4-yl)-1H-pyrrolo[3,2-c]pyridin-6-yl)-1H-pyrazole-4-carboxamide] |  |  |  | 0 to 33 | 0 to 33
13 | O=C(Nc1cc2[nH]c(-c3nc(C(F)(F)F)cs3)cc2cn1)C1CC1 [Example 104, N-(2-(4-(trifluoromethyl)thiazol-2-yl)-1H-pyrrolo[3,2-c]pyridin-6-yl)cyclopropanecarboxamide] | > 1 |  |  |  | 
14 | Cn1cc(C(=O)Nc2cc3[nH]c(C(F)(F)F)cc3cn2)cn1 [Example 341, 1-methyl-N-(2-(tirfluoromethyl)-1H-pyrrolo[3,2-c]pyridin-6-yl)-1H-pyrazole-4-carboxamide] |  |  |  | 0 to 33 | 0 to 33
15 | Cn1c(-c2ccnc(NCC(F)(F)F)n2)cc2cnc(N[C@H]3CCCOC3)cc21 (racemic) [Example 36, 1-Methyl-N-[rac-(3s)-tetrahydropyran-3-yl]-2-[2-(2,2,2-trifluoroethylamino)pyrimidin-4-yl]pyrrolo[3,2-c]pyridin-6-amine] | > 1 | 33 to 66 | 67 to 100 |  | 
16 | CNc1cc2c(cn1)cc(-c1ccnc(NCC(F)(F)F)n1)n2C [Example 390, N,1-dimethyl-2-(2-(2,2,2-trifluoroethylamino)pyrimidin-4-yl)-1H-pyrrolo[3,2-c]pyridin-6-amine] | > 1 |  |  |  | 
17 | Cc1cc(-c2cc3cnc(NC(=O)C(C)O)cc3[nH]2)ccn1 (stereo in doubt) [Example 263, (R)-2-hydroxy-N-(2-(2-methylpyridin-4-yl)-1H-pyrrolo[3,2-c]pyridin-6-yl)propanamide] |  |  |  | 0 to 33 | 0 to 33
18 | Cn1cc(C(=O)Nc2cc3[nH]c(-c4ccc(C(F)(F)F)nc4)cc3cn2)cn1 [Example 306, 1-methyl-N-(2-(6-(trifluoromethyl)pyridin-3-yl)-1H-pyrrolo[3,2-c]pyridin-6-yl)-1H-pyrazole-4-carboxamide] |  |  |  | 0 to 33 | 0 to 33
19 | Cn1cc(C(=O)Nc2cc3[nH]c(-c4ccnc(C#N)c4)cc3cn2)cn1 [Example 239, N-(2-(2-cyanopyridin-4-yl)-1H-pyrrolo[3,2-c]pyridin-6-yl)-1-methyl-1H-pyrazole-4-carboxamide] |  |  |  | 0 to 33 | 33 to 66
20 | COc1nccc(-c2cc3cnc(NC(=O)CC4COC4)cc3n2C)n1 [Example 87, N-(2-(2-methoxypyrimidin-4-yl)-1-methyl-1H-pyrrolo[3,2-c]pyridin-6-yl)-2-(oxetan-3-yl)acetamide] | > 1 | 33 to 66 | 0 to 33 |  | 
21 | CC(=O)Nc1cc2c(cn1)cc(-c1cc(C)ncn1)n2C [Example 119, N-(1-methyl-2-(6-methylpyrimidin-4-yl)-1H-pyrrolo[3,2-c]pyridin-6-yl)acetamide] | > 1 |  |  |  | 
22 | CCn1cc(C(=O)Nc2cc3[nH]c(-c4ccnc(OCC(F)F)n4)cc3cn2)c(C)n1 [Example 318] |  |  |  | 0 to 33 | 0 to 33
23 | Cc1cc(-c2cc3cnc(NC(=O)C(C)C)cc3n2C)ncn1 [Example 118, N-(1-methyl-2-(6-methylpyrimidin-4-yl)-1H-pyrrolo[3,2-c]pyridin-6-yl)isobutyramide] | > 1 |  |  |  | 
24 | CCOc1nccc(-c2cc3cnc(NC(=O)c4ccc(OCCOC)c(OC)c4)cc3[nH]2)n1 [Example 249, N-(2-(2-ethoxypyrimidin-4-yl)-1H-pyrrolo[3,2-c]pyridin-6-yl)-3-methoxy-4-(2-methoxyethoxy)benzamide] |  |  |  | 0 to 33 | 0 to 33
25 | O=C(Nc1cc2[nH]c(-c3ccnc(OCCF)n3)cc2cn1)c1cnn(C2CCOCC2)c1 [Example 225, N-(2-(2-(2-fluoroethoxy)pyrimidin-4-yl)-1H-pyrrolo[3,2-c]pyridin-6-yl)-1-(tetrahydro-2H-pyran-4-yl)-1H-pyrazole-4-carboxamide] |  |  |  | 0 to 33 | 33 to 66
26 | O=C(CC1CCCC1)Nc1cc2[nH]c(-c3ccncc3)cc2cn1 [Example 207, 2-cyclopentyl-N-(2-(pyridin-4-yl)-1H-pyrrolo[3,2-c]pyridin-6-yl)acetamide] |  |  |  | 0 to 33 | 67 to 100
27 | Cc1cc(-c2cc3cnc(NC(=O)c4cnn(C)c4)cc3[nH]2)ccn1 [Example 224, 1-methyl-N-(2-(2-methylpyridin-4-yl)-1H-pyrrolo[3,2-c]pyridin-6-yl)-1H-pyrazole-4-carboxamide] |  |  |  | 0 to 33 | 33 to 66
28 | O=C(Nc1cc2[nH]c(-c3ccnc(OCC(F)F)n3)cc2cn1)c1cnn(CC2CCCO2)c1 (stereo in doubt) [Example 234, (S)-N-(2-(2-(2,2-difluoroethoxy)pyrimidin-4-yl)-1H-pyrrolo[3,2-c]pyridin-6-yl)-1-((tetrahydrofuran-2-yl)methyl)-1H-pyrazole-4-carboxamdie] |  |  |  | 33 to 66 | 33 to 66
29 | CCOc1nccc(-c2cc3cnc(NC(=O)c4cnn([C@H]5C[C@H](O)C5)c4)cc3[nH]2)n1 [Example 270, N-(2-(2-ethoxypyrimidin-4-yl)-1H-pyrrolo[3,2-c]pyridin-6-yl)-1-((1r,3r)-3-hydroxycyclobutyl)-1H-pyrazole-4-carboxamide] |  |  |  | 0 to 33 | 0 to 33

— US20240124444A1 (Celgene Corporation, priority 2020, published 2024)
